Data from US6531477B1, “6-substituted pyrazolo [3,4-d] pyrimidin-4-ones useful as cyclin dependent kinase inhibitors” (DuPont Pharmaceuticals Company, priority 1998, dated 2003).

Row | Compound | melting point
1 | COc1cccc(Cc2nc3n(-c4c(Cl)cc(Cl)cc4Cl)[nH]c(SC)c-3c(=O)n2)c1 [Example 1, 1-(2,4,6-Trichlorophenyl)-3-(methylthio)-6-(3-methoxybenzyl)pyrazolo[3,4-d]pyrimidin-4-one] | 245 to 248 °C
2 | CSc1[nH]n(-c2c(Cl)cc(Cl)cc2Cl)c2nc(Cc3cccc(O)c3)nc(=O)c1-2 [Example 2, 1-(2,4,6-Trichlorophenyl)-3-(methylthio)-6-(3-hydroxybenzyl)pyrazolo[3,4-d]pyrimidin-4-one] | 264 to 266 °C
3 | CSc1nn(-c2c(Cl)cc(Cl)cc2Cl)c2nc(Cc3ccncc3)[nH]c(=O)c12 [Example 5] | 283 to 287 °C
4 | COc1ccc(Cc2nc3c(c(SC)nn3-c3c(Cl)cc(Cl)cc3Cl)c(=O)[nH]2)cc1OC [Example 6] | 226 to 230 °C
5 | CSc1nn(-c2c(Cl)cc(Cl)cc2Cl)c2nc(Cc3cccc([N+](=O)[O-])c3)[nH]c(=O)c12 [Example 7] | 243 to 255 °C
6 | COc1ccc(Cc2nc3c(c(SC)nn3-c3c(Cl)cc(Cl)cc3Cl)c(=O)[nH]2)cc1 [Example 8] | 263 to 267 °C
7 | CSc1nn(-c2c(Cl)cc(Cl)cc2Cl)c2nc(Cc3ccc(O)cc3)[nH]c(=O)c12 [Example 9] | 294 to 296 °C
8 | CSc1nn(-c2c(Cl)cc(Cl)cc2Cl)c2nc(Cc3ccc4c(c3)OCO4)[nH]c(=O)c12 [Example 13] | 257 to 260 °C
9 | CCc1nn(-c2c(Cl)cc(Cl)cc2Cl)c2nc(Cc3c[nH]c4ccccc34)[nH]c(=O)c12 [Example 18] | 296 to 299 °C
10 | CCc1nn(-c2c(Cl)cc(Cl)cc2Cl)c2nc(Cc3cc(OC)c(OC)c(OC)c3)[nH]c(=O)c12 [Example 24] | 224 to 226 °C
11 | CCc1nn(-c2c(Cl)cc(Cl)cc2Cl)c2nc(Cc3ccc(O)c([N+](=O)[O-])c3)[nH]c(=O)c12 [Example 26] | 263 to 266 °C
12 | CCc1nn(-c2c(Cl)cc(Cl)cc2Cl)c2nc(Cc3c[nH]c4ccc(OC)cc34)[nH]c(=O)c12 [Example 40] | 295 to 298 °C
13 | CCc1nn(-c2c(Cl)cc(Cl)cc2Cl)c2nc(Cc3cccc(CC(=O)O)c3)[nH]c(=O)c12 [Example 47] | 192 to 194 °C
14 | CC(C)c1nn(-c2c(Cl)cc(Cl)cc2Cl)c2nc(Cc3ccc(N)cc3)[nH]c(=O)c12 [Example 52] | 223 to 225 °C
15 | COc1cc(Cc2nc3c(c(C(C)C)nn3-c3c(Cl)cc(Cl)cc3Cl)c(=O)[nH]2)ccc1N [Example 54] | 238 to 240 °C
16 | CC(C)c1[nH]n(-c2c(Cl)cc(Cl)cc2Cl)c2nc(Cc3ccc(N(C(=O)OC(C)(C)C)C(=O)[C@@H]4CCCN4)cc3)nc(=O)c1-2 [Example 113, (S)-1-(2,4,6-Trichlorophenyl)-3-isopropyl-6-(4-(N-t-butoxycarbonylprolinamido)benzyl)pyrazolo[3,4-d]pyrimidin-4-one] | 225 to 226 °C

More lines, now with the values ahead:

Row | melting point | Compound
17 | 246 to 248 °C | CCc1[nH]n(-c2c(Cl)cc(Cl)cc2Cl)c2nc(C(O)c3ccccc3)nc(=O)c1-2 (racemic) [Example 117, (+/−)-1-(2,4,6-Trichlorophenyl)-3-ethyl-6-(α-hydroxybenzyl)pyrazolo[3,4-d]pyrimidin-4-one]
18 | 210 to 217 °C (dec.) | CC(C)c1nn(-c2c(Cl)cc(Cl)cc2Cl)c2nc(Cc3ccc(N)c(O)c3)[nH]c(=O)c12 [Example 55]
19 | 229 to 230 °C | CC(C)c1nn(-c2c(Cl)cc(Cl)cc2Cl)c2nc(Cc3ccc(Br)cc3)[nH]c(=O)c12 [Example 59]
20 | 214 to 215 °C | CC(C)c1nn(-c2c(Cl)cc(Cl)cc2Cl)c2nc(Cc3ccccn3)[nH]c(=O)c12 [Example 60]
21 | 273 to 275 °C | CC(C)c1nn(-c2c(Cl)cc(Cl)cc2Cl)c2nc(Cc3ccncc3)[nH]c(=O)c12 [Example 61]
22 | 205 to 206 °C | Cc1ccc(Cc2nc3c(c(C(C)C)nn3-c3c(Cl)cc(Cl)cc3Cl)c(=O)[nH]2)cc1 [Example 62]
23 | 194 to 195 °C | Cc1ccccc1Cc1nc2c(c(C(C)C)nn2-c2c(Cl)cc(Cl)cc2Cl)c(=O)[nH]1 [Example 63]
24 | 214 to 215 °C | CC(C)c1nn(-c2c(Cl)cc(Cl)cc2Cl)c2nc(Cc3cccnc3)[nH]c(=O)c12 [Example 64]
25 | 225 to 227 °C | Cc1ccncc1Cc1nc2c(c(C(C)C)nn2-c2c(Cl)cc(Cl)cc2Cl)c(=O)[nH]1 [Example 65]
26 | 244 to 246 °C | CNc1ccc(Cc2nc3c(c(C(C)C)nn3-c3c(Cl)cc(Cl)cc3Cl)c(=O)[nH]2)cc1 [Example 67]
27 | 245 to 248 °C | CC(C)c1nn(-c2c(Cl)cc(Cl)cc2Cl)c2nc(Cc3cnccc3Cl)[nH]c(=O)c12 [Example 69]
28 | 274 to 283 °C | O=c1[nH]c(Cc2ccc3[nH]ncc3c2)nc2c1c(C1CC1)nn2-c1c(Cl)cc(Cl)cc1Cl [Example 72]
29 | 259 to 260 °C | O=c1[nH]c(Cc2ccc([N+](=O)[O-])c(O)c2)nc2c1c(C1CC1)nn2-c1c(Cl)cc(Cl)cc1Cl [Example 76]
30 | 263 to 265 °C | COc1ccc(Cc2nc3c(c(C(F)(F)F)nn3-c3c(Cl)cc(Cl)cc3Cl)c(=O)[nH]2)cc1 [Example 82]
31 | 168 to 169 °C | CCOC(=O)Cc1ccc(Cc2nc3n(-c4c(Cl)cccc4Cl)[nH]c(C(C)C)c-3c(=O)n2)cc1 [Example 122, 1-(2,6-Dichlorophenyl)-3-isopropyl-6-(4-(carbethoxymethyl)benzyl)pyrazolo[3,4-d]pyrimidin-4-one]
32 | 212 to 214 °C | CC(C)c1[nH]n(-c2c(Cl)cccc2Cl)c2nc(Cc3ccc(CC(=O)O)cc3)nc(=O)c1-2 [Example 123, 1-(2,6-Dichlorophenyl)-3-isopropyl-6-(4-(carboxymethyl)benzyl)pyrazolo[3,4-d]pyrimidin-4-one]
33 | 170 to 172 °C | CC(C)c1[nH]n(-c2c(Cl)cccc2Cl)c2nc(Cc3ccc(CC(=O)NCCN(C)C)cc3)nc(=O)c1-2 [Example 124, 1-(2,6-Dichlorophenyl)-3-isopropyl-6-(4-(2-(N,N-dimethylamino)ethylaminocarbonylmethyl)benzyl)pyrazolo[3,4-d]pyrimidin-4-one]
34 | 206 to 207 °C | Cc1cccc(Cl)c1-n1[nH]c(C(C)C)c2c(=O)nc(Cc3ccc(N)cc3)nc1-2 [Example 127, 1-(2-Chloro-6-methylphenyl)-3-isopropyl-6-(4-aminobenzyl)pyrazolo[3,4-d]pyrimidin-4-one]
35 | 218 to 220 °C | CC(C)c1[nH]n(-c2c(Cl)cc(Cl)cc2Cl)c2nc(Cc3ccc(NC(=O)OCCN(C)C)cc3)nc(=O)c1-2 [Example 133, 1-(2,4,6-Trichlorophenyl)-3-isopropyl-6-(4-(2-(dimethylamino)ethoxycarbonylamino)benzyl)pyrazolo[3,4-d]pyrimidin-4-one]
36 | 212 to 214 °C | COc1cccc(Cc2nc3n(-c4c(Cl)cc(C=O)cc4Cl)[nH]c(C(C)C)c-3c(=O)n2)c1 [Example 138, 1-(2,6-Dichloro-4-formylphenyl)-3-isopropyl-6-(3-methoxybenzyl)pyrazolo[3,4-d]pyrimidin-4-one]
37 | 227 to 228 °C | CC(C)c1nn(-c2ccccc2Cl)c2nc(Cc3cccc(O)c3)[nH]c(=O)c12 [Example 143]
38 | 243 to 244 °C | CSc1nn(-c2ccccc2Cl)c2nc(Cc3ccc(O)cc3)[nH]c(=O)c12 [Example 149]
